From patent publication US6894054B2, “Heterocyclic inhibitors of glycine transporter 2” (Telik, Inc., priority 2001, dated 2005)
pIC50: −log10 of the molar value.

The molecules below were run against T1, rat glycine transporter subtype 2 (GlyT2) (Rattus norvegicus, UniProt P58295) (assay: Inhibition of glycine transporter 2: 3H-glycine uptake in CHO cells expressing rat GlyT2). Settings: GlyT2 inhibitory concentration, 15 min preincubation, 10 nM 3H-glycine, 7 min uptake, read-out: GlyT2 Inhib.
T1 construct: expressed in transfected cells; host or cells: CHO cells
T1 sequence (P58295 1-799): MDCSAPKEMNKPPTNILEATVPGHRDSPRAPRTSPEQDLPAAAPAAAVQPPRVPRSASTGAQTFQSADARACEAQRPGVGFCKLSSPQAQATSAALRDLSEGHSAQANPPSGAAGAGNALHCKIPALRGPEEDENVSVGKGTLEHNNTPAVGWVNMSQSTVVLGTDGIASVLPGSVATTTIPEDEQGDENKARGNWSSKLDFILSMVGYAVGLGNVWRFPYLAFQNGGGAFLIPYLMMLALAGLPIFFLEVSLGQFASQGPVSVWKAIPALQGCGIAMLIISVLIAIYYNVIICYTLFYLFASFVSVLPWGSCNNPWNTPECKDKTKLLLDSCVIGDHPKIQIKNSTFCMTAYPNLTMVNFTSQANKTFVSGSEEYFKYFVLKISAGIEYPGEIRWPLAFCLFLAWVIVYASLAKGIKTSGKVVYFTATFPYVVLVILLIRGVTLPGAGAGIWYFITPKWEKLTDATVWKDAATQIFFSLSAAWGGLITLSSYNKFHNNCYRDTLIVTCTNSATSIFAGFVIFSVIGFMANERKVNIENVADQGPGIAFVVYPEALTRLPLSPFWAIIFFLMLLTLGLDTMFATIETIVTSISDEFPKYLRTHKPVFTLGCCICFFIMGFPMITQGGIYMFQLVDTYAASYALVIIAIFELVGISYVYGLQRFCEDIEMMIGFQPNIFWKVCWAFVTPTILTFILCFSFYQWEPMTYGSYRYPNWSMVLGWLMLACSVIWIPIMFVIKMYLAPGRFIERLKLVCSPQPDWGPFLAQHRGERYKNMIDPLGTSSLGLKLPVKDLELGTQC
Assay type: cell-based
Experimental: CHO cells expressing rat glycine transporter subtype 2 (GlyT2) were grown in high glucose Dulbecco's modified Eagle's medium supplemented with 10% bovine fetal serum at 37° C. in a 5% CO2 atmosphere. Subconfluent cells growing in 24- or 96-well plates were washed with PBS, and were preincubated at 37° C. for 15 min with uptake buffer (100 mM NaCl, 2 mM KCl, 1 mM CaCl2, 1 mM MgCl2, 10 mM HEPES, pH 7.5) containing sample compounds. Uptake was initiated by adding prewarmed ^3H-glycine yielding a 10 nM final glycine concentration, and was terminated after 7 min by aspiration of the buffer. Cells were washed 3 times with ice-cold PBS, and radioactivity was determined by scintillation counting using TopCount. GlyT2 inhibitory concentrations for several compounds of Formula I are given below.

Going from `CCn1nc(C)cc1-c1nnc(SCc2ccccc2)n1-c1ccccc1` [Compound 7, 3-benzylthio-5-(2-ethyl-5-methyl-3-diazolyl)-4-phenyl-1,2,4-triazole] to `c1ccc(CSc2nnc(CCCCc3nnc(SCc4ccccc4)o3)o2)cc1` [Compound 21, 2,2′-(1,4-butanediyl)bis[5-(benzylthio)-1,3,4-oxadiazole]], the pIC50 rises from 5.18 to 5.96 (0.78 log units).

With `Clc1cccc(Cl)c1CSc1nnc(-c2cnccn2)s1` [Compound 12, 5-[(2,6-dichlorophenyl)methylthio]-2-(pyrazin-2-yl)-1,3,4-thiadiazole] the pIC50 was 6.05.
